# Source: patent publication US8383838B2, “5-oxo-2,3,4,5-tetrahydro-benzo[b]oxepine-4-carboxylic acid amides and 2,3-dihydro-benzo[b]oxepine-4-carboxylic acid amides for treatment and prevention of diabetes typ 1 and 2” (Merck Patent Gesellschaft mit Beschränkter Haftung, priority 2008, dated 2013)
# Biological target: T1, human GK (Homo sapiens, UniProt P35557)
# T1 sequence (P35557 1-465): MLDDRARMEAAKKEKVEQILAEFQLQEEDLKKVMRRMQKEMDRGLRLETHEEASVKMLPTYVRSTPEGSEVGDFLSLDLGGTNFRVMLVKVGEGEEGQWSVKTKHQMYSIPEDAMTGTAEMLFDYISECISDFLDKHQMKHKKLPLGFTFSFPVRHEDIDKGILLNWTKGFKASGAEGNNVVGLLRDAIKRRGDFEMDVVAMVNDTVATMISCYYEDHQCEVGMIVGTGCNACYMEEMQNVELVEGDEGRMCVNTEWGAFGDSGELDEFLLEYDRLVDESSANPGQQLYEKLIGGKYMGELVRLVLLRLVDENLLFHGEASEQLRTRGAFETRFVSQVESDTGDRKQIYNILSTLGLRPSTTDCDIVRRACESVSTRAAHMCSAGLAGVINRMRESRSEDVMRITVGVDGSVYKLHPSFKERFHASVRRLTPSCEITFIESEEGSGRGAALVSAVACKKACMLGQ
# Assay: Glucokinase Activation Screening Assay (coupled enzyme assay with PK and LDH)
# Type: biochemical
# Conditions: activation of human GK in percent of control (control incubation: 2 mM glucose, 0.91% DMSO); compound concentration not stated
# Protocol: Glucokinase Activation Screening Assay
# GK activity (human or rat enzyme) is measured by a coupled enzyme assay using pyruvate kinase (PK) and lactate dehydrogenase (LDH) as coupling enzymes. GK activity is calculated from the decline in NADH monitored photometrically with a microtiter plate (MTP) reader at 340 nm.
# For screening purposes, the GK assay is routinely run in a 384-MTP format, in a total volume of 33 μl/well. 10 μl of the ATP-regeneration solution (in HEPES-buffer*, pH 7.0, 6.73 U/ml pyruvate kinase, 6.8 U/ml lactate dehydrogenase) and 10 μl of the glucokinase-/glucose solution (15 μg/ml, 6.6 mM glucose in HEPES-buffer*, pH 7.0; the concentration of the glucose stock-solution was 660 mM in Millipore H2O) were mixed together with […] of a 10% DMSO solution (in HEPES-buffer*, pH 7.0) containing 3.3-fold the amounts of the compounds to achieve final compound concentrations in the range between 1 nM to 30 μM (sometimes 300 μM) in the assay solution (s. below). The solutions were mixed for 5 sec, and after a centrifugation at 243×g for 5 min, the solutions were preincubated for 25 min at room temperature.
# The reaction was started by the addition of 10 μl of the NADH-/ATP-solution (4.29 mM NADH, 4.95 mM ATP, in HEPES-buffer*). The MTP was shaken for 5 sec., and then, the absorbance at 340 nm was monitored continuously in a MTP-reader (TECAN Spectro fluor plus) for the next 27 min (with a MTP-cycling time of 199 sec.). The final concentrations of the various components were as follows: 49.5 mM Hepes, pH 7.0, 1.49 mM PEP, 1,3 mM NADH, 49.5 mM KCl, 4.96 mM MgCl2, 1.5 mM Mg-ATP, 1.98 mM DTT, 2.04 U/ml pyruvate kinase, 2.06 U/ml lactate-dehydrogenase, 0.91% DMSO, 0.15 μg/well glucokinase, and test compounds in the range between 1 nM and 300 μM.
# The change in the optical density (ΔOD340 nm) in the presence of the compound was expressed relative to the ΔOD340 nm, ctrl of the control incubation (in the presence of 2 mM glucose and 0.91% DMSO), taking into account the optical density of the blank sample (incubation in the absence of 2 mM glucose). For the determination of the half maximal effective concentration (EC50), the %-Ctrl-values were plotted in a semi-logarithmic graph against the conc. of the compound of interest. The data points were fitted to a sigmoid curve function (f(x)=((%-Ctrlmax−%-Ctrlmin)/(1−(EC50/x **^n(Hill)))+%-Ctrlmin)) by a non-linear regression analysis.
# * Hepes-buffer (50 mM Hepes, pH 7.0, 5 mM MgCl2, 50 mM KCl, 1.5 mM PEP, 0.1% BSA). DTT was added to the Hepes-buffer from a 200X stock solution (in Millipore H2O) freshly each day. The final concentration of DTT in the Hepes-buffer is 2 mM.
row,Structure (SMILES),hGK % CTL
1,"O=C(Nc1ccccn1)C1CCOc2cc(Cl)c(Cl)cc2C1=O (stereo not drawn) [Compound 1, 7,8-Dichloro-5-oxo-2,3,4,5-tetrahydro-benzo[b]oxepine-4-carboxylic acid pyridine-2-ylamide]",312 % CTL
2,"O=C(Nc1nccs1)C1CCOc2cc(F)ccc2C1=O (stereo not drawn) [Compound 2, 8-Fluoro-5-oxo-2,3,4,5-tetrahydro-benzo[b]oxepine-4-carboxylic acid thiazol-2-ylamide]",218 % CTL
3,"CCc1ccc2c(c1)OCCC(C(=O)Nc1ccccn1)C2=O (stereo not drawn) [Compound 3, 8-Ethyl-5-oxo-2,3,4,5-tetrahydro-benzo[b]oxepine-4-carboxylic acid pyridine-2-ylamide]",291 % CTL
4,"O=C(Nc1ccccn1)C1=Cc2ccccc2OCC1 [Compound 4, 2,3-Dihydro-benzo[b]oxepine-4-carboxylic acid pyridin-2-ylamide]",129 % CTL
5,"O=C(Nc1ccccn1)C1CCOc2cc(Cl)ccc2C1=O (stereo not drawn) [Compound 5, 8-Chloro-5-oxo-2,3,4,5-tetrahydro-benzo[b]oxepine-4-carboxylic acid pyridin-2-ylamide]",388 % CTL
6,"O=C(Nc1ccccn1)C1CCOc2ccccc2C1=O (stereo not drawn) [Compound 6, 5-Oxo-2,3,4,5-tetrahydro-benzo[b]oxepine-4-carboxylic acid pyridin-2-ylamide]",245 % CTL
7,"O=C(Nc1nccs1)C1CCOc2cc(Cl)ccc2C1=O (stereo not drawn) [Compound 7, 8-Chloro-5-oxo-2,3,4,5-tetrahydro-benzo[b]oxepine-4-carboxylic acid thiazol-2-ylamide]",215 % CTL
8,"O=C(Nc1nccs1)C1CCOc2cc(Cl)c(Cl)cc2C1=O (stereo not drawn) [Compound 8, 7,8-Dichloro-5-oxo-2,3,4,5-tetrahydro-benzo[b]oxepine-4-carboxylic acid thiazol-2-ylamide]",194 % CTL
9,"CCc1ccc2c(c1)OCCC(C(=O)Nc1nccs1)C2=O (stereo not drawn) [Compound 9, 8-Ethyl-5-oxo-2,3,4,5-tetrahydro-benzo[b]oxepine-4-carboxylic acid thiazol-2-ylamide]",207 % CTL
10,"O=C(Nc1ccccn1)C1CCOc2ccc(Cl)cc2C1=O (stereo not drawn) [Compound 10, 7-Chloro-5-oxo-2,3,4,5-tetrahydro-benzo[b]oxepine-4-carboxylic acid pyridin-2-ylamide]",192 % CTL
11,"O=C(Nc1nccs1)C1CCOc2ccc(Cl)cc2C1=O (stereo not drawn) [Compound 11, 7-Chloro-5-oxo-2,3,4,5-tetrahydro-benzo[b]oxepine-4-carboxylic acid thiazol-2-ylamide]",121 % CTL
12,"COc1ccc2c(c1)C(=O)C(C(=O)Nc1ccccn1)CCO2 (stereo not drawn) [Compound 12, 7-Methoxy-5-oxo-2,3,4,5-tetrahydro-benzo[b]oxepine-4-carboxylic acid pyridin-2-ylamide]",149 % CTL
13,"CC1(C)COc2cc(-c3ccc(F)cc3)ccc2C(=O)C1C(=O)Nc1ccccn1 (stereo not drawn) [Compound 13, 8-(4-Fluoro-phenyl)-3,3-dimethyl-5-oxo-2,3,4,5-tetrahydro-benzo[b]oxepine-4-carboxylic acid pyridin-2-ylamide]",124 % CTL
14,"O=C(Nc1nccs1)C1CCOc2ccccc2C1=O (stereo not drawn) [Compound 14, 5-Oxo-2,3,4,5-tetrahydro-benzo[b]oxepine-4-carboxylic acid thiazol-2-ylamide]",115 % CTL
15,"O=C(Nc1ccccn1)C1CCOc2ccc(Oc3ccccc3)cc2C1=O (stereo not drawn) [Compound 15, 5-Oxo-7-phenoxy-2,3,4,5-tetrahydro-benzo[b]oxepine-4-carboxylic acid pyridin-2-ylamide]",94 % CTL
16,"CC1(C)COc2cc(Cl)c(F)cc2C(=O)C1C(=O)Nc1ccccn1 (stereo not drawn) [Compound 16, 8-Chloro-7-fluoro-3,3-dimethyl-5-oxo-2,3,4,5-tetrahydro-benzo[b]oxepine-4-carboxylic acid pyridin-2-ylamide]",181 % CTL
17,"CCc1ccc2c(c1)OCC(C)(C)C(C(=O)Nc1ccccn1)C2=O (stereo not drawn) [Compound 17, 8-Ethyl-3,3-dimethyl-5-oxo-2,3,4,5-tetrahydro-benzo[b]oxepine-4-carboxylic acid pyridin-2-ylamide]",104 % CTL
18,"O=C(Nc1nccs1)C1=Cc2ccccc2OCC1 [Compound 18, 2,3-Dihydro-benzo[b]oxepine-4-carboxylic acid thiazol-2-ylamide]",161 % CTL
